Assay results taken from patent publication US20240158446A1, “CYCLIC COMPOUND HAVING SELECTIVE INHIBITORY ACTION ON KRAS OVER HRAS AND NRAS” (CHUGAI SEIYAKU KABUSHIKI KAISHA, priority 2021, published 2024).
Where two headings read alike, the source gives them in different places. *1 amine or outer side, *2 acyl side, *3 side chain or, on linkers, in order; H or OH if unused. Where a SMILES comes first, the peptide text is derived from it. Bridges are numbered along the chain shown (N, C = ends). [ ]: non-standard residue; d: D form. The star is where a group is joined. hPhe(3,5-F2-4-CF3) = N[C@@H](CCc1cc(F)c(C(F)(F)F)c(F)c1)C(=O)O; hPhe(3-Cl-4-CF3) = N[C@@H](CCc1ccc(C(F)(F)F)c(Cl)c1)C(=O)O; X31 = COCCCN([C@@H](Cc1ccc(C(F)(F)F)cc1)C(=O)[*:2])[*:1]; X17 = CCCCN([C@@H](Cc1ccc(C(F)(F)F)cc1)C(=O)[*:2])[*:1]; NPrPhe(4-CF3) = CCCN[C@@H](Cc1ccc(C(F)(F)F)cc1)C(=O)O; Piperazinyl(4-(3-oxetanyl)) = C1OCC1N1CCN(*)CC1; X29 = CN([C@@H](CCCC=[*:3])C(=O)[*:2])[*:1]; dαMeAlg = C[C@](CC=[*:3])(N[*:1])C(=O)[*:2]; X13 = O=C([C@@H](N[*:1])C1CC(F)(F)C1)[*:2]; NMeGly(cPent) = CN[C@H](C(=O)O)C1CCCC1; Hyp = O=C(O)[C@@H]1C[C@@H](O)CN1; NMeD = CN[C@@H](CC(=O)O)C(=O)O; NMeL = CN[C@@H](CC(C)C)C(=O)O; Morpholide = C1CN(*)CCO1; NMeA = CN[C@@H](C)C(=O)O; Ac5c = NC1(C(=O)O)CCCC1; Aze = O=C(O)[C@@H]1CCN1; Sar = CNCC(=O)O

Columns and labels:
[1] = target: GDP-bound KRAS wild-type protein (Homo sapiens, UniProt P01116); experiment: Binding to KRAS by surface plasmon resonance (SPR), Single Cycle Kinetics; conditions: GDP-bound KRAS wild-type protein, read-out: KRAS KD
[2] = target: GDP-bound NRAS wild-type protein (Homo sapiens, UniProt P01111); experiment: Binding to NRAS by surface plasmon resonance (SPR), Single Cycle Kinetics; conditions: SPR, GDP-bound NRAS wild-type protein vs GDP-bound KRAS wild-type protein
[3] = target: GDP-bound HRAS wild-type protein (Homo sapiens, UniProt P01112); experiment: Binding to HRAS by surface plasmon resonance (SPR), Single Cycle Kinetics; conditions: SPR, GDP-bound HRAS wild-type protein vs GDP-bound KRAS wild-type protein
[4] = SPR Single Cycle Kinetics, 1:1 binding model
[5] = SPR, Single Cycle Kinetics, 1:1 binding model

Chain of GDP-bound KRAS wild-type protein (P01116 whole entry): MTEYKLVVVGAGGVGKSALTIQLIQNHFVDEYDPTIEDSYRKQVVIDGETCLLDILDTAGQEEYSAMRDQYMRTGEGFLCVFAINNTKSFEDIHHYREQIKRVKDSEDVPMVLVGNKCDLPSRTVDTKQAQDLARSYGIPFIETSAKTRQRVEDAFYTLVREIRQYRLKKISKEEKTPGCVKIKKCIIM
Chain of GDP-bound HRAS wild-type protein (P01112 whole entry): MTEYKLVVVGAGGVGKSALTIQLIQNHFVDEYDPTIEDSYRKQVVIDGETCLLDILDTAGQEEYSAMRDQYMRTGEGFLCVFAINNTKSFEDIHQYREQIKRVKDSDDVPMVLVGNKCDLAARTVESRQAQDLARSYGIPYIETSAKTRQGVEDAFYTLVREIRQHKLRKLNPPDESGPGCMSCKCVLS
Chain of GDP-bound NRAS wild-type protein (P01111 whole entry): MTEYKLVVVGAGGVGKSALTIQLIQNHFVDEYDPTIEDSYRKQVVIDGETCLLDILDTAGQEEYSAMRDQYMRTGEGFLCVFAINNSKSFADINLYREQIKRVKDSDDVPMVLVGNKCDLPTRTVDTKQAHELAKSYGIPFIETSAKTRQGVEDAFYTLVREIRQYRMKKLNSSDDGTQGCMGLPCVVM

SMILES | NRAS/KRAS (ratio of KD value for NRAS to KD value for KRAS) [2] | HRAS/KRAS (ratio of KD value for HRAS to KD value for KRAS) [3] | Kd [1, 4] | NRAS/KRAS (ratio of KD value with respect to NRAS to KD value with respect to KRAS) [2] | HRAS/KRAS (ratio of KD value with respect to HRAS to KD value with respect to KRAS) [3] | also measured
CCO[C@@H]1C[C@H]2C(=O)N[C@@]3(C)CCCCCCC[C@@H](C(=O)N[C@@H]([C@@H](C)CC)C(=O)N(C)CC(=O)N(C)[C@H]4CCCCN(C4=O)[C@@H](Cc4ccc(C(F)(F)F)cc4)C(=O)N(C)CC(=O)N[C@@H](CCc4cc(F)c(C(F)(F)F)c(F)c4)C(=O)N2C1)N(C)C(=O)C[C@@H](C(=O)N1CCOCC1)N(C)C(=O)[C@H](C1CCCC1)N(C)C3=O [PP0993] | B (a compound having 3 or more and less than 10 is denoted as B) | B (a compound having 3 or more and less than 10 is denoted as B) | – | – | – | Kd ([1]; SPR, Single Cycle Kinetics): 1.4 nM
CC[C@H](C)[C@@H]1NC(=O)[C@H](CC(C)C)N(C)C(=O)C[C@@H](C(=O)N2CCOCC2)N(C)C(=O)[C@H](C2CCCC2)N(C)C(=O)C(C)(C)NC(=O)[C@@H]2CCCN2C(=O)[C@H](CCc2cc(F)c(C(F)(F)F)c(F)c2)NC(=O)CN(C)C(=O)[C@H](Cc2ccc(C(F)(F)F)cc2)N2CCCCC[C@@H](C2=O)N(C)C(=O)CN(C)C1=O [PP0503] | – | – | 4.4 nM | A (a compound having 10 or more and less than 20 is denoted as A) | B (a compound having 3 or more and less than 10 is denoted as B) | –
CCCCN1C(=O)CN(C)C(=O)CN(C)C(=O)[C@H]([C@@H](C)CC)NC(=O)[C@H](CC(C)C)N(C)C(=O)C[C@@H](C(=O)N2CCOCC2)N(C)C(=O)[C@H](C2CCCC2)N(C)C(=O)C2(CCCC2)NC(=O)[C@@H]2CCCN2C(=O)[C@H](CCc2ccc(C(F)(F)F)c(Cl)c2)NC(=O)CN(C)C(=O)[C@@H]1Cc1ccc(C(F)(F)F)cc1 [PP0120] ([NMeL]I[Sar][Sar][X17][Sar][hPhe(3-Cl-4-CF3)]P[Ac5c][NMeGly(cPent)][NMeD]-Morpholide; lactam N-11) | B (a compound having 3 or more and less than 10 is denoted as B) | C (A compound having a KD ratio of 0.1 or more and less than 3 is denoted as C) | 0.19 nM | – | – | –
CCO[C@@H]1C[C@H]2C(=O)NC3(CC(C)(C)C3)C(=O)N(C)[C@@H](C(CC)CC)C(=O)N(C)[C@H](C(=O)N(C)C)CC(=O)N(C)[C@@H](CC(C)C)C(=O)N[C@@H]([C@@H](C)CC)C(=O)N(C)CC(=O)N(C)[C@H]3C/C=C\CCN(C3=O)[C@@H](Cc3ccc(C(F)(F)F)cc3)C(=O)N(C)CC(=O)N[C@@H](CCc3ccc(Cl)c(Cl)c3)C(=O)N2C1 [PP2176] | AA (a compound having 20 or more is denoted as AA) | A (a compound having 10 or more and less than 20 is denoted as A) | – | – | – | Kd ([1]; SPR, Single Cycle Kinetics): 0.47 nM
CCO[C@@H]1C[C@H]2C(=O)NC3(CCC3)C(=O)N(C)[C@@H](C3CCCC3)C(=O)N(C)[C@H](C(=O)N3CCOCC3)CC(=O)N(C)[C@@H](CC3CC3)C(=O)N[C@@H]([C@@H](C)CC)C(=O)N(C)CC(=O)N(C)[C@H]3CCCCN(C3=O)[C@@H](Cc3ccc(C(F)(F)F)cc3)C(=O)N(C)CC(=O)N[C@@H](CCc3cc(F)c(C(F)(F)F)c(F)c3)C(=O)N2C1 [PP0712] | – | – | 0.042 nM | C (A compound having a KD ratio of 0.1 or more and less than 3 is denoted as C) | C (A compound having a KD ratio of 0.1 or more and less than 3 is denoted as C) | –
CCCN1C(=O)[C@@H]2CCN2C(=O)CN(C)C(=O)[C@H](C2CC(F)(F)C2)NC(=O)[C@H](CC(C)C)N(C)C(=O)C[C@@H](C(=O)N2CCOCC2)N(C)C(=O)[C@H](C2CCCC2)N(C)C(=O)C2(CCCC2)NC(=O)[C@@H]2CCCN2C(=O)[C@H](CCc2cc(F)c(C(F)(F)F)c(F)c2)NC(=O)CN(C)C(=O)[C@@H]1Cc1ccc(C(F)(F)F)cc1 [PP0787] ([NMeL][X13][Sar][Aze][NPrPhe(4-CF3)][Sar][hPhe(3,5-F2-4-CF3)]P[Ac5c][NMeGly(cPent)][NMeD]-Morpholide; lactam N-11) | – | – | 0.34 nM | C (A compound having a KD ratio of 0.1 or more and less than 3 is denoted as C) | B (a compound having 3 or more and less than 10 is denoted as B) | –
CCCN1C(=O)CN(C)C(=O)CN(C)C(=O)[C@H]([C@@H](C)CC)NC(=O)[C@H](CC(C)C)N(C)C(=O)C[C@@H](C(=O)N2CCN(C3COC3)CC2)N(C)C(=O)[C@H](C2CCCC2)N(C)C(=O)C2(CCCC2)NC(=O)[C@@H]2CCCN2C(=O)[C@H](CCc2ccc(C(F)(F)F)c(Cl)c2)NC(=O)CN(C)C(=O)[C@@H]1Cc1ccc(C(F)(F)F)cc1 [PP0175] ([NMeL]I[Sar][Sar][NPrPhe(4-CF3)][Sar][hPhe(3-Cl-4-CF3)]P[Ac5c][NMeGly(cPent)][NMeD]-{Piperazinyl(4-(3-oxetanyl))}; lactam N-11) | B (a compound having 3 or more and less than 10 is denoted as B) | B (a compound having 3 or more and less than 10 is denoted as B) | 0.35 nM | – | – | –
CCO[C@@H]1C[C@H]2C(=O)NC3(CCC3)C(=O)N(C)[C@@H](C3CCCC3)C(=O)N(C)[C@H](C(=O)N(C)CCOC)CC(=O)N(C)[C@@H](CC)C(=O)N[C@@H]([C@@H](C)CC)C(=O)N(C)CC(=O)N(C)[C@H]3C/C=C\CCN(C3=O)[C@@H](Cc3ccc(C(F)(F)F)cc3)C(=O)N(C)CC(=O)N[C@@H](CCc3ccc4sccc4c3)C(=O)N2C1 [PP1322] | – | – | – | – | – | Kd [1, 5]: 0.59 nM; NRAS/KRAS (ratio of KD value for NRAS to KD value for KRAS) ([2]; KD ratio class): A (a compound having 10 or more and less than 20 is denoted as A); HRAS/KRAS (ratio of KD value for HRAS to KD value for KRAS) ([3]; KD ratio class): A (a compound having 10 or more and less than 20 is denoted as A)
CC[C@H](C)[C@@H]1NC(=O)[C@H](CC(C)C)N(C)C(=O)C[C@@H](C(=O)N2CCOCC2)N(C)C(=O)[C@H](C2CCCC2)N(C)C(=O)C2(CCCC2)NC(=O)[C@@H]2CCCN2C(=O)[C@H](CCc2ccc(C(F)(F)F)c(Cl)c2)NC(=O)CN(C)C(=O)[C@H](Cc2ccc(C(F)(F)F)cc2)N(CCCOC)C(=O)[C@@H]2CCN2C(=O)[C@H](C)N(C)C1=O [PP0119] ([NMeL]I[NMeA][Aze][X31][Sar][hPhe(3-Cl-4-CF3)]P[Ac5c][NMeGly(cPent)][NMeD]-Morpholide; lactam N-11) | C (A compound having a KD ratio of 0.1 or more and less than 3 is denoted as C) | C (A compound having a KD ratio of 0.1 or more and less than 3 is denoted as C) | 0.1 nM | – | – | –
CC[C@H](C)[C@@H]1NC(=O)[C@H](CC(C)C)N(C)C(=O)C[C@@H](C(=O)N2CCOCC2)N(C)C(=O)[C@H](C2CCCC2)N(C)C(=O)C2(CCCC2)NC(=O)[C@@H]2CCCN2C(=O)[C@H](CCc2ccc(C(F)(F)F)c(Cl)c2)NC(=O)CN(C)C(=O)[C@H](Cc2ccc(OC(F)(F)F)cc2)N2CCCC[C@@H](C2=O)N(C)C(=O)CN(C)C1=O [PP0536] | – | – | 0.63 nM | B (a compound having 3 or more and less than 10 is denoted as B) | B (a compound having 3 or more and less than 10 is denoted as B) | –
CCCN1C(=O)CN(C)C(=O)CN(C)C(=O)[C@H]([C@@H](C)CC)NC(=O)[C@@H]2CCCC=CC[C@@](C)(NC(=O)[C@@H]3C[C@@H](OCC)CN3C(=O)[C@H](CCc3cc(F)c(C(F)(F)F)c(F)c3)NC(=O)CN(C)C(=O)[C@@H]1Cc1ccc(C(F)(F)F)cc1)C(=O)N(C)[C@@H](C1CCCC1)C(=O)N(C)[C@H](C(=O)N1CCOCC1)CC(=O)N2C [PP0901] ([X29]I[Sar][Sar][NPrPhe(4-CF3)][Sar][hPhe(3,5-F2-4-CF3)][Hyp](Et)[dαMeAlg][NMeGly(cPent)][NMeD]-Morpholide; staple 1-9; lactam N-11) | B (a compound having 3 or more and less than 10 is denoted as B) | B (a compound having 3 or more and less than 10 is denoted as B) | – | – | – | Kd ([1]; SPR, Single Cycle Kinetics): 3 nM
CCO[C@@H]1C[C@H]2C(=O)NC3(CCC3)C(=O)N(C)[C@@H](C3CCCC3)C(=O)N(C)[C@H](C(=O)N(C)CCOC)CC(=O)N(C)[C@@H](C)C(=O)N[C@@H]([C@@H](C)CC)C(=O)N(C)CC(=O)N(C)[C@H]3C/C=C\CCN(C3=O)[C@@H](Cc3ccc(C(F)(F)F)cc3)C(=O)N(C)CC(=O)N[C@@H](CCc3cc(F)c(C(F)(F)F)c(F)c3)C(=O)N2C1 [PP1319, (2S,8S,12R,14S,20S,23S,27S,30S,36S,38Z)-20-cyclopentyl-8-[2-[3,5-difluoro-4-(trifluoromethyl)phenyl]ethyl]-12-ethoxy-N-(2-methoxyethyl)-N,4,19,22,26,27,32,35-octamethyl-30-[(1S)-1-methylpropyl]-3,6,9,15,18,21,25,28,31,34,42-undecaoxo-2-[[4-(trifluoromethyl)phenyl]methyl]spiro[1,4,7,10,16,19,22,26,29,32,35-undecazatricyclo[34.5.1.0^10,14]dotetracont-38-ene-17,1′-cyclobutane]-23-carboxamide] | – | – | – | – | – | Kd [1, 5]: 0.069 nM; NRAS/KRAS (ratio of KD value for NRAS to KD value for KRAS) ([2]; KD ratio class): A (a compound having 10 or more and less than 20 is denoted as A); HRAS/KRAS (ratio of KD value for HRAS to KD value for KRAS) ([3]; KD ratio class): B (a compound having 3 or more and less than 10 is denoted as B)
